Results: the NIST ThermoML archive (doi:10.1021/je300873x)

Assay: mn = molality of the nth substance listed, in mol/kg
Settings: for surface tension liquid-gas: Pendant drop shape; for electrical conductivity: Liquid, Digital conductivity meter

CCCCCCCCCCCCCCCC[N+](C)(CCO)CCO.[Br-] [hexadecyl- di(2-hydroxyethyl)-methylazanium bromide] + O
Settings	electrical conductivity [S/m]	surface tension liquid-gas [mN/m]
298.15 K, m1 = 0.00011	–	64.14
298.15 K, m1 = 0.00021	–	58.32
298.15 K, m1 = 0.00032	–	52.91
298.15 K, m1 = 0.00042	–	47.72
298.15 K, m1 = 0.00053	–	44.77
298.15 K, m1 = 0.00056	0.0055	–
298.15 K, m1 = 0.00058	0.0057	–
298.15 K, m1 = 0.0006	0.0059	–
298.15 K, m1 = 0.00063	0.0062	41.55
298.15 K, m1 = 0.00065	0.0064	–
298.15 K, m1 = 0.00068	0.0067	–
298.15 K, m1 = 0.00072	0.0069	–
298.15 K, m1 = 0.00074	–	38.75
298.15 K, m1 = 0.00075	0.0072	–
298.15 K, m1 = 0.00079	0.0073	38.7
298.15 K, m1 = 0.00084	0.0075	38.62
298.15 K, m1 = 0.00089	0.0077	38.55
298.15 K, m1 = 0.00094	0.0078	–
298.15 K, m1 = 0.00095	–	38.02
298.15 K, m1 = 0.001	0.0081	–
298.15 K, m1 = 0.00105	–	38.11
298.15 K, m1 = 0.00108	0.0083	–
298.15 K, m1 = 0.00116	0.0086	37.87
298.15 K, m1 = 0.00126	0.0089	37.86
298.15 K, m1 = 0.00137	0.0092	–
298.15 K, m1 = 0.00151	0.0094	–
303.15 K, m1 = 0.00032	0.0034	–
303.15 K, m1 = 0.00035	0.0038	–
303.15 K, m1 = 0.00039	0.0042	–
303.15 K, m1 = 0.00043	0.0046	–
303.15 K, m1 = 0.0005	0.0052	–
303.15 K, m1 = 0.00058	0.0061	–
303.15 K, m1 = 0.00063	0.0066	–
303.15 K, m1 = 0.00068	0.007	–
303.15 K, m1 = 0.00075	0.0075	–
303.15 K, m1 = 0.00084	0.0081	–
303.15 K, m1 = 0.00094	0.0086	–
303.15 K, m1 = 0.001	0.0088	–
303.15 K, m1 = 0.00107	0.0091	–
303.15 K, m1 = 0.00116	0.0094	–
303.15 K, m1 = 0.00125	0.0097	–
303.15 K, m1 = 0.00137	0.01	–
303.15 K, m1 = 0.0015	0.0105	–
308.15 K, m1 = 0.00031	0.0037	–
308.15 K, m1 = 0.00035	0.004	–
308.15 K, m1 = 0.00038	0.0044	–
308.15 K, m1 = 0.00043	0.0049	–
308.15 K, m1 = 0.00049	0.0057	–
308.15 K, m1 = 0.00058	0.0067	–
308.15 K, m1 = 0.00063	0.0072	–
308.15 K, m1 = 0.00068	0.0078	–
308.15 K, m1 = 0.00075	0.0084	–
308.15 K, m1 = 0.00083	0.009	–
308.15 K, m1 = 0.00094	0.0097	–
308.15 K, m1 = 0.001	0.01	–
308.15 K, m1 = 0.00107	0.0102	–
308.15 K, m1 = 0.00116	0.0106	–
308.15 K, m1 = 0.00125	0.0108	–
308.15 K, m1 = 0.00137	0.0112	–
308.15 K, m1 = 0.0015	0.0117	–
313.15 K, m1 = 0.00058	0.0073	–
313.15 K, m1 = 0.0006	0.0075	–
313.15 K, m1 = 0.00062	0.0078	–
313.15 K, m1 = 0.00065	0.0081	–
313.15 K, m1 = 0.00068	0.0084	–
313.15 K, m1 = 0.00071	0.0088	–
313.15 K, m1 = 0.00075	0.009	–
313.15 K, m1 = 0.00079	0.0097	–
313.15 K, m1 = 0.00083	0.0101	–
313.15 K, m1 = 0.00088	0.0105	–
313.15 K, m1 = 0.00094	0.0109	–
313.15 K, m1 = 0.001	0.0112	–
313.15 K, m1 = 0.00107	0.0116	–
313.15 K, m1 = 0.00115	0.012	–
313.15 K, m1 = 0.00125	0.0124	–
313.15 K, m1 = 0.00136	0.0128	–
313.15 K, m1 = 0.0015	0.0133	–
318.15 K, m1 = 0.00055	0.0075	–
318.15 K, m1 = 0.00058	0.0078	–
318.15 K, m1 = 0.0006	0.008	–
318.15 K, m1 = 0.00062	0.0084	–
318.15 K, m1 = 0.00065	0.0087	–
318.15 K, m1 = 0.00068	0.0091	–
318.15 K, m1 = 0.00071	0.0095	–
318.15 K, m1 = 0.00075	0.0099	–
318.15 K, m1 = 0.00079	0.0105	–
318.15 K, m1 = 0.00083	0.0111	–
318.15 K, m1 = 0.00088	0.0116	–
318.15 K, m1 = 0.00093	0.0122	–
318.15 K, m1 = 0.001	0.0127	–
318.15 K, m1 = 0.00107	0.0131	–
318.15 K, m1 = 0.00115	0.0135	–
318.15 K, m1 = 0.00125	0.0139	–
318.15 K, m1 = 0.00136	0.0145	–
318.15 K, m1 = 0.0015	0.0152	–
323.15 K, m1 = 0.00055	0.008	–
323.15 K, m1 = 0.00057	0.0083	–
323.15 K, m1 = 0.0006	0.0086	–
323.15 K, m1 = 0.00062	0.0089	–
323.15 K, m1 = 0.00065	0.0093	–
323.15 K, m1 = 0.00068	0.0097	–
323.15 K, m1 = 0.00071	0.0101	–
323.15 K, m1 = 0.00075	0.0106	–
323.15 K, m1 = 0.00079	0.0112	–
323.15 K, m1 = 0.00083	0.0117	–
323.15 K, m1 = 0.00088	0.0124	–
323.15 K, m1 = 0.00093	0.0131	–
323.15 K, m1 = 0.00099	0.0137	–
323.15 K, m1 = 0.00107	0.0143	–
323.15 K, m1 = 0.00115	0.0148	–
323.15 K, m1 = 0.00124	0.0154	–
323.15 K, m1 = 0.00136	0.0161	–
323.15 K, m1 = 0.00149	0.0169	–

O [water] + CCCCCCCCCCCCCCCC[N+](C)(C)CCO.[Br-]
Settings	surface tension liquid-gas [mN/m]
298.15 K, m2 = 0	72.17

O [water] + CCCCCCCCCCCCCCCC[N+](C)(CCO)CCO.[Br-]
Settings	surface tension liquid-gas [mN/m]
298.15 K, m2 = 0	72.17

O [water] + CCCCCCCCCCCCCC[N+](C)(C)CCO.[Br-]
Settings	surface tension liquid-gas [mN/m]
298.15 K, m2 = 0	72.17

O [water] + CCCCCCCCCCCCCC[N+](C)(CCO)CCO.[Br-]
Settings	surface tension liquid-gas [mN/m]
298.15 K, m2 = 0	72.17

O [water] + CCCCCCCCCCCC[N+](C)(C)CCO.[Br-]
Settings	surface tension liquid-gas [mN/m]
298.15 K, m2 = 0	72.17

O [water] + CCCCCCCCCCCC[N+](C)(CCO)CCO.[Br-]
Settings	surface tension liquid-gas [mN/m]
298.15 K, m2 = 0	72.17
